The supplement of paper PMC11451515

System: P12-Ichikawa
Test: cell viability relative to DMSO control; higher = less cytotoxic
Conditions: 48 h
Procedure, shortened: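 Three leukemia lines were tested: NOMO1 and SEM at 500 cells/well and P12-Ichikawa at 1000 cells/well. Each was adapted for at least four passages in each medium and seeded in 5 μl in 1536-well plates, and library compounds in DMSO were pin-dosed from 47 μM to 0.79 nM in 11 threefold steps. After 48 h at 37°C, CellTiter-Glo One luminescence was read. Viability is a percentage relative to DMSO wells on each plate, with cell-free wells as background.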

[1] = HPLM + 10% dialyzed FBS, 0.000781 µM
[2] = HPLM + 10% dialyzed FBS, 0.00234 µM
[3] = HPLM + 10% dialyzed FBS, 0.00702 µM
[4] = HPLM + 10% dialyzed FBS, 0.0211 µM
[5] = HPLM + 10% dialyzed FBS, 0.0632 µM
[6] = HPLM + 10% dialyzed FBS, 0.19 µM
[7] = HPLM + 10% dialyzed FBS, 0.569 µM
[8] = HPLM + 10% dialyzed FBS, 1.71 µM
[9] = HPLM + 10% dialyzed FBS, 5.12 µM
[10] = HPLM + 10% dialyzed FBS, 15.4 µM
[11] = HPLM + 10% dialyzed FBS, 46.1 µM
[12] = RPMI 5 mM glucose + 10% FBS, 0.000781 µM
[13] = RPMI 5 mM glucose + 10% FBS, 0.00234 µM
[14] = RPMI 5 mM glucose + 10% FBS, 0.00702 µM
[15] = RPMI 5 mM glucose + 10% FBS, 0.0211 µM
[16] = RPMI 5 mM glucose + 10% FBS, 0.0632 µM
[17] = RPMI 5 mM glucose + 10% FBS, 0.19 µM
[18] = RPMI 5 mM glucose + 10% FBS, 0.569 µM
[19] = RPMI 5 mM glucose + 10% FBS, 1.71 µM
[20] = RPMI 5 mM glucose + 10% FBS, 5.12 µM
[21] = RPMI 5 mM glucose + 10% FBS, 15.4 µM
[22] = RPMI 5 mM glucose + 10% FBS, 46.1 µM
[23] = RPMI 5 mM glucose + 10% dialyzed FBS, 0.000781 µM
[24] = RPMI 5 mM glucose + 10% dialyzed FBS, 0.00234 µM
[25] = RPMI 5 mM glucose + 10% dialyzed FBS, 0.00702 µM
[26] = RPMI 5 mM glucose + 10% dialyzed FBS, 0.0211 µM
[27] = RPMI 5 mM glucose + 10% dialyzed FBS, 0.0632 µM
[28] = RPMI 5 mM glucose + 10% dialyzed FBS, 0.19 µM
[29] = RPMI 5 mM glucose + 10% dialyzed FBS, 0.569 µM
[30] = RPMI 5 mM glucose + 10% dialyzed FBS, 1.71 µM
[31] = RPMI 5 mM glucose + 10% dialyzed FBS, 5.12 µM
[32] = RPMI 5 mM glucose + 10% dialyzed FBS, 15.4 µM
[33] = RPMI 5 mM glucose + 10% dialyzed FBS, 46.1 µM

Compound | cell viability [1] [%] | cell viability [2] [%] | cell viability [3] [%] | cell viability [4] [%] | cell viability [5] [%] | cell viability [6] [%] | cell viability [7] [%] | cell viability [8] [%] | cell viability [9] [%] | cell viability [10] [%] | cell viability [11] [%] | cell viability [12] [%] | cell viability [13] [%] | cell viability [14] [%] | cell viability [15] [%] | cell viability [16] [%] | cell viability [17] [%] | cell viability [18] [%] | cell viability [19] [%] | cell viability [20] [%] | cell viability [21] [%] | cell viability [22] [%] | cell viability [23] [%] | cell viability [24] [%] | cell viability [25] [%] | cell viability [26] [%] | cell viability [27] [%] | cell viability [28] [%] | cell viability [29] [%] | cell viability [30] [%] | cell viability [31] [%] | cell viability [32] [%] | cell viability [33] [%]
Nc1cccc2c1CN([C@H]1CCC(=O)NC1=O)C2=O | 115 | 112 | 114 | 117 | 109 | 114 | 107 | 103 | 107 | 88.8 | 96.7 | 109 | 124 | 118 | 118 | 124 | 113 | 116 | 99.6 | 114 | 80.8 | 92.7 | 112 | 114 | 105 | 107 | 107 | 107 | 97.4 | 102 | 94.8 | 63.3 | 80.8
COc1ccc2[nH]c([S+]([O-])Cc3ncc(C)c(OC)c3C)nc2c1 (stereo unspecified) | 82.5 | 85.9 | 92.3 | 90 | 91.6 | 90 | 90.4 | 92 | 95.5 | 95.4 | 78.4 | 73.7 | 86.8 | 81.3 | 89.6 | 85.1 | 78 | 85.8 | 91.9 | 85.2 | 84.9 | 67.4 | 79.2 | 79.8 | 78.2 | 77 | 76.8 | 75.1 | 76.7 | 76.4 | 70.6 | 79.6 | 66.6
C=CCc1cccc(/C=N/NC(=O)CN2CCN(Cc3ccccc3)CC2)c1O | 120 | 115 | 119 | 118 | 116 | 117 | 117 | 106 | 97 | 64.2 | 7.9 | 110 | 102 | 113 |  | 110 | 113 | 108 | 108 | 94.5 | 52.9 | 17.1 | 109 | 99.7 | 109 | 114 | 109 | 101 | 112 | 102 | 87.5 | 44.8 | 13.5
COc1cc([C@H]2Oc3cc([C@H]4Oc5cc(O)cc(O)c5C(=O)[C@@H]4O)ccc3O[C@@H]2CO)ccc1O | 108 | 118 | 106 | 109 | 118 | 119 | 112 | 110 | 105 | 99.8 | 99.8 | 113 | 112 | 125 | 109 | 113 | 104 | 98.9 | 112 | 116 | 101 | 94.2 | 102 | 109 | 115 | 105 | 111 | 106 | 103 | 101 | 96.7 | 100 | 90.1
CC(C)c1cnn2c(NCc3ccccc3)cc(NCCCCCCN)nc12 | 110 | 124 | 131 | 125 | 122 | 127 | 116 | 113 | 116 | 110 | 76.8 |  |  |  |  |  |  |  |  |  |  |  |  |  |  |  |  |  |  |  |  |  | 
Cc1[nH]c(/C=C2\C(=O)Nc3ccccc32)c(C)c1CCC(=O)O | 95.3 | 101 | 99.3 | 105 | 111 | 114 | 88.7 | 104 | 73.1 | 32.2 | 6.87 | 105 | 103 | 93.9 | 110 | 110 | 118 | 87.1 | 106 | 72.9 | 42 | 7.11 | 102 | 105 | 113 | 110 | 113 | 112 | 91.1 | 101 | 82.3 | 65.2 | 11.2
N#Cc1ccnc(Nc2cc(C3CCN(C4COC4)CC3)cc(N3CCC(F)(F)C3)n2)c1 | 97.8 | 99.8 | 104 | 105 | 99.5 | 104 | 100 | 108 | 107 | 88.2 | 36.1 | 105 | 104 | 101 | 101 | 102 | 99.7 | 108 | 115 | 108 | 62.8 | 32.2 | 108 | 104 | 101 | 103 | 109 | 104 | 106 | 108 | 111 | 56.8 | 36.8
O=C(Oc1ccc([N+](=O)[O-])cc1)N1CCC(C(O)(c2ccc3c(c2)OCO3)c2ccc3c(c2)OCO3)CC1 | 90 | 95.5 | 90.2 | 98.7 | 92 | 99.4 | 102 | 91.4 | 93.6 | 79.3 | 69.3 | 91.8 | 85 | 90.3 | 99.3 | 91.3 | 91.9 | 99.3 | 90.3 | 68.5 | 93.7 | 93.1 | 75.9 | 88.5 | 86.3 | 88.6 | 90.2 | 90.3 | 86.4 | 91.8 | 73.5 | 91.1 | 84.9
CC1=C(CC(=O)O)c2cc(F)ccc2/C1=C\c1ccc([S+](C)[O-])cc1 (stereo unspecified) | 121 | 110 | 116 | 123 | 124 | 117 | 116 | 109 | 108 | 106 | 101 |  |  |  |  |  |  |  |  |  |  |  | 121 | 120 | 127 | 125 | 112 | 122 | 109 | 108 | 111 | 111 | 105
Cc1ccc([S+](=O)([O-])Nc2nc3ccccc3nc2Nc2ccc3nsnc3c2)cc1 | 105 | 110 | 111 | 110 | 115 | 116 | 109 | 112 | 106 | 36.3 | 13.3 | 93.4 | 114 | 104 | 116 | 103 | 113 | 110 | 103 | 77.5 | 28.5 | 12.4 | 92 | 107 | 112 | 116 | 112 | 104 | 101 | 112 | 92.1 | 74.1 | 30.4
C[S+](=O)([O-])c1cccc(CNc2nc(Nc3ccc4c(c3)CCC(=O)N4)ncc2C(F)(F)F)c1 | 114 | 122 | 112 | 111 | 110 | 107 | 106 | 102 | 106 | 96.7 | 14.3 | 119 | 120 | 113 | 120 | 108 | 111 | 113 | 103 | 101 | 89.9 | 25.9 | 110 | 120 | 120 | 113 | 111 | 110 | 106 | 114 | 104 | 94.3 | 32.3
COc1ccc([C@@H]2CC(=O)c3c(O)cc(O[C@@H]4O[C@H](CO[C@@H]5O[C@@H](C)[C@H](O)[C@@H](O)[C@H]5O)[C@@H](O)[C@H](O)[C@H]4O)cc3O2)cc1O | 97.9 | 99 | 116 | 118 | 113 | 116 | 107 | 116 | 114 | 111 | 116 | 96.2 | 101 | 110 | 113 | 107 | 114 | 111 | 106 | 107 | 116 | 109 | 104 | 111 | 109 | 108 | 114 | 111 | 113 | 111 | 108 | 115 | 109
COC(=O)C1C2CC3c4[nH]c5cc(OC)ccc5c4CCN3CC2CC(OC(=O)c2cc(OC)c(OC)c(OC)c2)C1OC (stereo unspecified) | 106 | 109 | 112 | 107 | 115 | 111 | 101 | 105 | 110 | 107 | 102 | 115 | 120 | 121 | 114 | 107 | 109 | 118 | 112 | 111 | 113 | 91 | 121 | 106 | 119 | 114 | 104 | 113 | 105 | 106 | 107 | 99.5 | 102
CN1CCN2c3ncccc3Cc3ccccc3C2C1 (stereo unspecified) | 122 | 119 | 113 | 120 | 122 | 115 | 114 | 119 | 114 | 108 | 111 | 134 | 118 | 124 | 132 | 129 | 125 | 135 | 121 | 117 | 112 | 101 | 125 | 118 | 113 | 120 | 121 | 118 | 128 | 115 | 111 | 108 | 100
CC[C@]12\C=C/CN3CC[C@]4([C@@H](N(C)C5=CC(=C(C=C45)[C@]6(C[C@H]7C[C@H](CN(C7)CC8=C6[NH]C9=C8C=CC=C9)C(C)(F)F)C(=O)OC)OC)[C@](O)([C@@H]1OC(C)=O)C(=O)OC)[C@H]23 | 91.9 | 93.3 | 92 | 69.4 | 37 | 12 | 15.3 | 13.2 | 8.31 | 8.59 | 6.21 | 93.7 | 88.8 | 85.9 | 63.7 | 18.6 | 13.9 | 20.9 | 11.4 | 8.45 | 7.91 | 5.99 | 87.4 | 83 | 83.5 | 79.3 | 51.6 | 27.1 | 26.5 | 21.5 | 16.1 | 13 | 5.7
